# Reference: US7378387B2, “Method of suppressing immune response by reducing intracellular content of glutathione in macrophages and monocytes” (Ajinomoto Co., Inc., priority 1997, dated 2008)
# How the values were obtained:
# [1] = system: IL-12; experiment: IL-12 production of MΦ from JaK3 knock out mice (Example 6); format: in vivo; conditions: stimulation of LPS or IFNγ; 1 mg/ml in city water, 24 days; no production in control group
# Procedure: The amount of IL-12 was determined through bioassay using cells of human T cell strain 2D6 (J. Leukocyte Biology, vol. 61, p. 346, 1997).
# 2D6 cells which had been incubated in an RPMI 1640 medium containing 500 pg/ml of recombinant human IL-12, 50 μM of 2-mercaptoethanol and 10% FCS (fetal calf serum) were moved to a tube, and centrifugally washed three times with the above-mentioned medium without IL-12 and cell density was adjusted to 1×10^5/ml. The cell suspension was added in an amount of 100 μl each to a 96-well flat bottom plate containing a sample serially diluted in advance with an RPMI 1640 medium containing 50 μM of 2-mercaptoethanol and 10% FCS in an amount of 100 μl each. […] The cells a harvested, and the radioactivity was measured using a β counter (Matrix 96, supplied by Packard).
# Macrophages (MΦ) were prepared from knock out mice deficient in a molecule participating in a signal transduction system from a receptor, and the function of the redox system was analyzed. […]
# Peritoneal cells were harvested from three groups of knock out mice, and stimulated with LPS, IL-2, IFNγ and a combination thereof. The NO production, the IL-6 production and the IL-12 production were measured. […] Then, the IL-6 production was analyzed. In LPS stimulation, the amount was detected as 962 pg/ml in the knock out mice derived MΦ culture, 122 pg/ml in the NAC group, and 82 pg/ml in the GSH-OEt group. […]
# [2] = system: macrophage-like cells from tissues of rheumatoid arthritis patients; experiment: Intracellular GSH by ACAS in macrophage-like cells from tissues of rheumatoid arthritis patients (Example 17); format: cell-based, human; conditions: 3 hours; for relative ratio of oxidative macrophages (reduced amount of intracellular glutathione) compared with saline-added group: added at 2 mM
# Procedure: Synovial tissue was aseptically sampled from tissues resected during joint surgery. The sampled synovial tissue was rinsed in phosphate buffer, from which the surface was peeled off in a petri dish containing the same phosphate buffer. Then, the resulting synovial tissue was cut into pieces with a pair of scissors. To the pieces were added 2% hyaluronidase (manufactured by Sigma), 0.2% DNase (derived from bovine pancreas) and 5% collagenase, for enzymatic treatment at 37° C. for 2 hours. After discarding the resulting debris, a cell fraction recovered by centrifugation was adjusted to 5×10^5 cells/ml in a phenol red-free DMEM culture medium supplemented with 10% FCS (manufactured by Nikken Biology Co.). For 3 hours, the cells were allowed to adhere to the plastic surface. Plastic surface adherent macrophage-like cells harvested with a rubber policeman were then subjected to rinsing in combination with centrifugation three times using the culture medium under ice cooling. The resulting cells were designated as synovial tissue-derived macrophages and were then subjected to the following experiments.
# By the same manner as in Example 3, macrophage-like cells were collected from tissues of rheumatoid arthritis patients, and were then suspended and adjusted in a phenol red-free RPMI 1640 culture medium supplemented with 10% fetal calf serum to 3×10^6 cells/ml. The suspension was divided in 100-μl portions on Lab-Tek Chamber Slide (#136439; manufactured by NUNC, CO.), for culturing in 5% CO2 at 37° C. for 3 hours; after discarding the nonadherent cells, the 200-μl serum-free culture medium further containing any of the following chemical agents was fed to the resulting culture, for reaction for 3 hours; and then, the resulting culture was rinsed three times, followed by addition of the serum-free culture medium of 200 μl and addition of monochlorobimane to a final concentration of 10 μM, for reaction for 30 minutes. The amount of intracellular GSH was assayed by imaging analysis with an ACAS system (manufactured by Meridian Co.).
# [3] = system: spontaneous inflammatory bowel disease; experiment: Spontaneous inflammatory bowel disease in γc knock out mice (Example 13); format: in vivo; conditions: −/Y mice, 20 μg/h twice a week, 5 times in total; for survival rate, Day 31 / survival rate, Day 45: non-administration 33%; for occurrence rate of intestinal inflammation, Day 14 / occurrence rate of intestinal inflammation, Day 31: non-administration 83%; for occurrence rate of intestinal inflammation, Day 45: non-administration 100%
# Excerpt: In wild-type normal littermates of γc knock out mice (genetic phenotypes +/+, +/Y), no inflammatory bowel disease is observed at all under ordinary SPF breeding conditions. However, in γc knock out mice (genetic phenotypes, −/−, −/+ and −/Y), inflammatory bowel diseases occur very of ten. With respect to homo-knock out mice with −/− and −/Y phenotypes, approximately 70% thereof are spontaneously accompanied with inflammatory bowel diseases within 4 months. Also with respect to mice with +/− phenotype, approximately 60% thereof are spontaneously accompanied therewith within 6 months. That is, intestinal shortening, bloody stool, diarrhea, loose passage, anal prolapse and colonal hypertrophy are observed.
# On the basis of the findings mentioned above, the effect of inhibiting spontaneous progression of inflammatory bowel disease in γc knock out mice was examined with respect to human Crohn disease and ulcerative colitis models. Saline, (NAC-OMe)2 or (NAC)2 (20 μg/h) was administered twice a week, 5 times in total, to each of 6 γc knock out male mice with […] and 6 γc knock out male mice with −/Y genotype which were inclined to have oxidative MΦ. It was examined whether or not the intestinal inflammation spontaneously progressed in −/Y was inhibited. In case of (NAC-OMe)2, on Day 14 of the administration, the occurrence rate of the non-administration −/Y group and the administration −/Y group was 83% to 25%; on Day 31, the occurrence rate was 83% to 25%, and the survival rate was 33% to 100%; and on Day 45, the occurrence rate was 100% to 25%, and the survival rate was 33% to 75%. In case of (NAC)2, it was 30, 40, 100, 40, 75% respectively.
SMILES,amount of IL-12 [1] [pg/mL],relative ratio of oxidative macrophages (reduced amount of intracellular glutathione) compared with saline-added group [2],relative ratio of oxidative macrophages (reduced amount of intracellular glutathione) compared with saline-added group ([2]; listed as glutathione ethyl ester),"survival rate, Day 31 [3] [%]","survival rate, Day 45 [3] [%]","occurrence rate of intestinal inflammation, Day 14 [3] [%]","occurrence rate of intestinal inflammation, Day 31 [3] [%]","occurrence rate of intestinal inflammation, Day 45 [3] [%]",induction of oxidative macrophage with the reduced amount of intracellular glutathione ([2]; added at 2 μM)
"CCOC(=O)CNC(=O)[C@H](CS)NC(=O)CC[C@H](N)C(=O)O [GSH-OEt, glutathione monoethyl ester]",610,same action was also observed,decreased,–,–,–,–,–,–
"CC(=O)N[C@@H](CSSC[C@H](NC(C)=O)C(=O)O)C(=O)O [(NAC)2, N,N′-diacetylcystine]",–,–,–,100,75,30,40,40,–
"CC(=O)N[C@@H](CS)C(=O)O [NAC, N-acetylcysteine, reference compound]",420,–,–,–,–,–,–,–,–
"COC(=O)[C@H](CSSC[C@H](NC(C)=O)C(=O)OC)NC(C)=O [(NAC-OMe)2, N,N′-diacetylcystine dimethyl ester]",–,–,–,100,75,25,25,25,confirmed
